Data: patent US20240343658A1, “MICRONUTRIENT COMPOSITIONS AND SYSTEMS AND METHODS OF USING SAME” (Winfield Solutions, LLC, priority 2016, published 2024)

Experiment: compatibility with pesticides, modified ASTM E1518-05 (2012) tank mixture test
Type: physicochemical
Settings: admixture with the zinc-containing adjuvant, after 72 hours
Description: The zinc-containing adjuvant compositions of the present disclosure were tested for compatibility with pesticides using a modified approach from ASTM E1518-05 (2012), Standard Practice for Evaluation of Physical Compatibility of Pesticides in Aqueous Tank Mixtures by the Dynamic Shaker Method, ASTM International, West Conshohocken, P A, 2012. The pesticides tested included: glyphosate including in its various forms including Roundup®) PowerMax®, Durango®, Cornerstone® 5 plus, Touchdown Total®, Enlist Duo™ (containing glyphosate and 2,4-D) and MON 76382; 2,4-D; Sterling® Blue; Basagran®; Enginia™.
Materials and Methods: The apparatuses used in compatibility testing included: 1. a graduated cylinder, 120 mL; 2. transfer pipets; 3. balance, +0.01 g; 4. a sieve, U.S. standard, 50 mesh (300 μm), 3 inches in diameter; and 5. a flashlight. […] Synthetic water was made according to CIPAC handbook F section MT18.
The final disposition of the compatibility test was on or around 100 mL, and the ratios needed to bring an application of 10 gallons per acre to 100 mL per acre were calculated. 70 percent of the water needed for the compatibility test was added to the cylinder at room temperature. The remaining components were added for the jar test according to WALES and DALES unless otherwise specified by the product label. Applications rates were used from the product label. […]

With `O=C(O)COc1ccc(Cl)cc1Cl` [2,4-D, 2,4-Dichlorophenoxyacetic acid] the compatibility observation was “same results as the 24 hour testing”.
